Measurements published in ChEMBL document CHEMBL1255561, “A new NF-κB inhibitor based on the amino-epoxyquinol core of DHMEQ” (Bioorg Med Chem Lett, 2010).
The source made the active and inactive calls. No cut-off for these calls is given here.

Experiments:
[1] = test system: RAW264.7; assay: Inhibition of LPS-induced NF-kappaB activation in mouse RAW264.7 cells at up to 30 ug/ml after 30 mins by electrophoretic mobility shift assay; assay type: cell-based
[2] = test system: RAW264.7; assay: Inhibition of LPS-induced iNOS expression in mouse RAW264.7 cells at up to 30 ug/ml treated 1 hr before LPS challenge measured after 6 hrs by immunoblotting; assay type: functional, cell-based
[3] = test system: RAW264.7; assay: Inhibition of LPS-induced nitric oxide production in mouse RAW264.7 cells treated 1 hr before LPS challenge measured after 24 hrs by Griess reaction; assay type: functional, cell-based
[4] = test system: RAW264.7; assay: Cytotoxicity in mouse RAW264.7 cells at 30 ug/ml after 24 hrs by MTT assay; assay type: cell-based; conditions: raw264.7, 24 h
[5] = molecular target: Transcription factor p65 (Homo sapiens) (UniProt Q04206); assay: Binding affinity to recombinant NF-kappaB transcription factor p65 subunit (1-325) at 4 equiv mol concentration after 1 hr by MALDI-TOF MS analysis
Transcription factor p65 (Homo sapiens), sequence (Q04206 whole entry): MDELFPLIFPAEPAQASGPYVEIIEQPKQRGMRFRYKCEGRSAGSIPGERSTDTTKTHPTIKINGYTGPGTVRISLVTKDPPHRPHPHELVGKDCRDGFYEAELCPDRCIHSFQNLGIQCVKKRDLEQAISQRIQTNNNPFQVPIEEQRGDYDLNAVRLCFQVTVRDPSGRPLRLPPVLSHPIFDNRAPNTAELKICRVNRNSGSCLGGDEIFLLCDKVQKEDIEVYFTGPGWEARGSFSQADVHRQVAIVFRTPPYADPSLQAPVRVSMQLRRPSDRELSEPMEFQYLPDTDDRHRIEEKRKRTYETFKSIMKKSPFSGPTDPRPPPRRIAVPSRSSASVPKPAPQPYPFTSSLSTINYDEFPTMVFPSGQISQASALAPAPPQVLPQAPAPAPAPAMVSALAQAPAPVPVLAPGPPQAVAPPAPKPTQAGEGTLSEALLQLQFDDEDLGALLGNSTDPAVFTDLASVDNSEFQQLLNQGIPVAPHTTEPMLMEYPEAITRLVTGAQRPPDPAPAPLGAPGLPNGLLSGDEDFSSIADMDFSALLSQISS

Row | Activity [5] | SMILES | inhibition [1] | inhibition [2] | inhibition [3] | Activity [4]
1 | inactive | C=CCOC(=O)NC1=CC(=O)[C@H]2O[C@H]2[C@@H]1O (relative stereo) | Active | Active | Dose-dependent effect | Toxic
2 | Active | C=CCOC(=O)NC1=CC(=O)[C@H]2O[C@H]2[C@H]1O (relative stereo) |  | Active |  | 
